US20230407243A1, “GENETIC PLATFORM TO INVESTIGATE THE FUNCTIONS OF BACTERIAL DRUG EFFLUX PUMPS” (priority 2022, published 2023)
Where two headings read alike, the source gives them in different places.

How the values were obtained:
Format in all cases: cell-based, Escherichia coli
wild-type (WT) K-12-Pore = test: microbe, parasite or virus in culture; conditions: technical duplicate; for MIC: Escherichia coli
Method in brief: (§1)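 Strains carry the fhuA ΔC/Δ4L pore integrated between glmS and pstS under a constitutive promoter, with pore activity checked by vancomycin susceptibility. Overnight LB cultures were adjusted in PBS pH 7.4 to OD600 ~1.0 and diluted 1/2000 into MHB II. 2-fold compound titrations were read by OD600 after 18 h at 37 °C.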

ΔtolC-Pore = test: microbe, parasite or virus in culture; conditions: for MIC: Escherichia coli, 18 h, read-out: Minimum inhibitory concentration, ΔtolC-Pore; for Minimum inhibitory concentration (MIC), Pore ΔtolC: Table 10, with pore
Method in brief: as §1

EKO-35-Pore = test: MIC susceptibility profiling, porinated strain; conditions: for Fold changes of MICs: EKO-35-Pore compared to EKO-35-Pore (reference); for MIC: Escherichia coli
Method in brief: as §1

EKO-35 araC::acrBD408A = test: MIC susceptibility profiling, efflux platform; conditions: for Fold change of MICs: EKO-35 araC::acrBD408A compared to EKO-35; for MIC: Escherichia coli, read-out: Minimum Inhibitory Concentration, EKO-35 araC::acrBD408A
Method in brief: (§2)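 Steps: LB overnight culture at 37 °C; resuspension in PBS to OD600 ~1.0; 1/2000 dilution in MHB II; addition to 2-fold serial compound dilutions (duplicate); 18 h shaking incubation at 37 °C; OD600 read, with pre-read subtracted.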

EKO-35 araC::acrEF = test: MIC susceptibility profiling, efflux platform; conditions: for Fold change of MICs: EKO-35 araC::acrEF compared to EKO-35; for MIC: Escherichia coli, read-out: Minimum Inhibitory Concentration, EKO-35 araC::acrEF
Method in brief: as §2

EKO-35 araC::mdtEF = test: MIC susceptibility profiling, efflux platform; conditions: for Fold change of MICs: EKO-35 araC::mdtEF compared to EKO-35; for MIC: Escherichia coli, read-out: Minimum Inhibitory Concentration, EKO-35 araC::mdtEF
Method in brief: as §2

EKO-35 araC::mdtBC = test: MIC susceptibility profiling, efflux platform; conditions: for Fold change of MICs: EKO-35 araC::mdtBC compared to EKO-35; for MIC: Escherichia coli, read-out: Minimum Inhibitory Concentration, EKO-35 araC::mdtBC
Method in brief: as §2

[1] = test system: EKO-35 araC::mexCD (MexCD from P. aeruginosa); test: MIC susceptibility profiling, efflux platform; conditions: for Fold change of MICs: EKO-35 araC::mexCD compared to EKO-35; for MIC: read-out: Minimum Inhibitory Concentration, EKO-35 araC::mexCD
Method in brief: as §2

EKO-35 araC::emrKY = test: MIC susceptibility profiling, efflux platform; conditions: for Fold change of MICs: EKO-35 araC::emrKY compared to EKO-35; for MIC: Escherichia coli, read-out: Minimum Inhibitory Concentration, EKO-35 araC::emrKY
Method in brief: as §2

EKO-35 araC::emrAB = test: MIC susceptibility profiling, efflux platform; conditions: for Fold change of MICs: EKO-35 araC::emrAB compared to EKO-35; for MIC: Escherichia coli, read-out: Minimum Inhibitory Concentration, EKO-35 araC::emrAB
Method in brief: as §2

EKO-35 araC::macAB = test: MIC susceptibility profiling, efflux platform; conditions: for Fold change of MICs: EKO-35 araC::macAB compared to EKO-35; for MIC: Escherichia coli, read-out: Minimum Inhibitory Concentration, EKO-35 araC::macAB
Method in brief: as §2

EKO-35 araC::acrD = test: MIC susceptibility profiling, efflux platform; conditions: for Fold change of MICs: EKO-35 araC::acrD compared to EKO-35; for MIC: Escherichia coli, read-out: Minimum Inhibitory Concentration, EKO-35 araC::acrD
Method in brief: as §2

EKO-35 araC::acrB = test: MIC susceptibility profiling, efflux platform; conditions: for Fold change of MICs: EKO-35 araC::acrB compared to EKO-35; for MIC: Escherichia coli, read-out: Minimum Inhibitory Concentration, EKO-35 araC::acrB
Method in brief: as §2

EKO-35 araC::acrD Pore = test: MIC susceptibility profiling, porinated efflux platform; conditions: for Fold changes of MICs: EKO-35 araC::acrD Pore compared to EKO-35-Pore; for MIC: Escherichia coli, read-out: Minimum inhibitory concentration, EKO-35 araC::acrD Pore
Method in brief: as §1

EKO-35 araC::acrB Pore = test: as above; conditions: for Fold changes of MICs: EKO-35 araC::acr-B Pore compared to EKO-35-Pore; for MIC: Escherichia coli, read-out: Minimum inhibitory concentration, EKO-35 araC::acrB Pore
Method in brief: as §1

[2] = test system: EKO-35 araC::acrBD408A Pore; test: as above; conditions: for Fold changes of MICs: EKO-35 araC::acrBD408A Pore compared to EKO-35-Pore; for MIC: Escherichia coli, read-out: Minimum inhibitory concentration
Method in brief: as §1

EKO-35 araC::emrAB Pore = test: as above; conditions: for Fold changes of MICs: EKO-35 araC::emrAB Pore compared to EKO-35-Pore; for MIC: Escherichia coli, read-out: Minimum inhibitory concentration
Method in brief: as §1

EKO-35 araC::acrEF Pore = test: as above; conditions: for Fold changes of MICs: EKO-35 araC::acrEF Pore compared to EKO-35-Pore; for MIC: Escherichia coli, read-out: Minimum inhibitory concentration, EKO-35 araC::acrEF Pore
Method in brief: as §1

[3] = Table 10, with pore, read-out: Minimum inhibitory concentration (MIC), Pore K-12
[4] = Table 14A, porinated, read-out: Minimum inhibitory concentration, K-12 (WT)-Pore
[5] = Table 10, with pore, technical duplicate, read-out: Minimum inhibitory concentration (MIC), Pore EKO-35
[6] = Table 14A, porinated, technical duplicate, read-out: Minimum inhibitory concentration, EKO-35-Pore
[7] = Table 13B, non-porinated, technical duplicate
[8] = Table 13A, non-porinated, technical duplicate
[9] = Table 14A, porinated, technical duplicate
[10] = EKO-35 araC::acrBD408A Pore, technical duplicate
[11] = EKO-35 araC::emrAB Pore, technical duplicate

Structure (SMILES) | MIC (wild-type (WT) K-12-Pore; [3]) | MIC (wild-type (WT) K-12-Pore; [4]) | MIC (ΔtolC-Pore) | Minimum inhibitory concentration (MIC), Pore ΔtolC (ΔtolC-Pore; technical duplicate) | Fold changes of MICs (EKO-35-Pore) | Fold change of MICs (EKO-35 araC::acrBD408A) | Fold change of MICs (EKO-35 araC::acrEF) | Fold change of MICs (EKO-35 araC::mdtEF) | Fold change of MICs (EKO-35 araC::mdtBC) | Fold change of MICs [1] | Fold change of MICs (EKO-35 araC::emrKY) | Fold change of MICs (EKO-35 araC::emrAB) | Fold change of MICs (EKO-35 araC::macAB) | Fold change of MICs (EKO-35 araC::acrD) | Fold change of MICs (EKO-35 araC::acrB) | Fold changes of MICs (EKO-35 araC::acrD Pore) | Fold changes of MICs (EKO-35 araC::acrB Pore) | Fold changes of MICs [2] | Fold changes of MICs (EKO-35 araC::emrAB Pore) | Fold changes of MICs (EKO-35 araC::acrEF Pore) | also measured
CC[n+]1c(-c2ccccc2)c2cc(N)ccc2c2ccc(N)cc21 [ethidium bromide] | 100 µg/mL | 100 µg/mL | 3.12 µg/mL | 3.125 µg/mL | 1 fold | 2 fold | 16 fold | 8 fold | 1 fold | 8 fold | 1 fold | 1 fold | 1 fold | 2 fold | 64 fold | 2 fold | 64 fold | 1 fold | 1 fold | 16 fold | MIC (EKO-35-Pore; [5]): 0.098 µg/mL; MIC (EKO-35-Pore; [6]): 0.098 µg/mL; MIC (EKO-35 araC::acrBD408A; [7]): 0.391 µg/mL; MIC (EKO-35 araC::acrEF; [8]): 3.12 µg/mL; MIC (EKO-35 araC::mdtEF; [8]): 1.56 µg/mL; MIC (EKO-35 araC::mdtBC; [7]): 0.195 µg/mL; MIC [1, 7]: 1.56 µg/mL; MIC (EKO-35 araC::emrKY; [7]): 0.195 µg/mL; MIC (EKO-35 araC::emrAB; [7]): 0.195 µg/mL; MIC (EKO-35 araC::macAB; [7]): 0.195 µg/mL; MIC (EKO-35 araC::acrD; [8]): 0.391 µg/mL; MIC (EKO-35 araC::acrB; [8]): 12.5 µg/mL; MIC (EKO-35 araC::acrD Pore; [9]): 0.195 µg/mL; MIC (EKO-35 araC::acrB Pore; [9]): 6.25 µg/mL; MIC [2, 10]: 0.098 µg/mL; MIC (EKO-35 araC::emrAB Pore; [11]): 0.098 µg/mL; MIC (EKO-35 araC::acrEF Pore; [9]): 1.56 µg/mL
C=C1CCO[C@]2([C@@H](O)[C@@](C)(O)CO)NC(=O)[C@@]1(O)NC2=O [Bicyclomycin] |  |  |  | 200 µg/mL | 1 fold | 1 fold | 1 fold | 1 fold | 1 fold | 1 fold | 1 fold | 1 fold | 1 fold | 1 fold | 1 fold | 1 fold | 1 fold | 1 fold | 1 fold | 1 fold | Minimum inhibitory concentration (MIC), Pore K-12 (wild-type (WT) K-12-Pore; Table 10, with pore): 200 µg/mL; Minimum inhibitory concentration, K-12 (WT)-Pore (wild-type (WT) K-12-Pore; Table 14A, porinated): 200 µg/mL; Minimum inhibitory concentration, ΔtolC-Pore (ΔtolC-Pore; [9]): 200 µg/mL; Minimum inhibitory concentration (MIC), Pore EKO-35 (EKO-35-Pore; Table 10, with pore, technical duplicate): 200 µg/mL; Minimum inhibitory concentration, EKO-35-Pore (EKO-35-Pore; [9]): 200 µg/mL; Minimum Inhibitory Concentration, EKO-35 araC::acrBD408A (EKO-35 araC::acrBD408A; [7]): 200 µg/mL; Minimum Inhibitory Concentration, EKO-35 araC::acrEF (EKO-35 araC::acrEF; [8]): 200 µg/mL; Minimum Inhibitory Concentration, EKO-35 araC::mdtEF (EKO-35 araC::mdtEF; [8]): 200 µg/mL; Minimum Inhibitory Concentration, EKO-35 araC::mdtBC (EKO-35 araC::mdtBC; [7]): 200 µg/mL; Minimum Inhibitory Concentration, EKO-35 araC::mexCD [1, 7]: 200 µg/mL; Minimum Inhibitory Concentration, EKO-35 araC::emrKY (EKO-35 araC::emrKY; [7]): 200 µg/mL; Minimum Inhibitory Concentration, EKO-35 araC::emrAB (EKO-35 araC::emrAB; [7]): 200 µg/mL; Minimum Inhibitory Concentration, EKO-35 araC::macAB (EKO-35 araC::macAB; [7]): 200 µg/mL; Minimum Inhibitory Concentration, EKO-35 araC::acrD (EKO-35 araC::acrD; [8]): 200 µg/mL; Minimum Inhibitory Concentration, EKO-35 araC::acrB (EKO-35 araC::acrB; [8]): 200 µg/mL; Minimum inhibitory concentration, EKO-35 araC::acrD Pore (EKO-35 araC::acrD Pore; [9]): 200 µg/mL; Minimum inhibitory concentration, EKO-35 araC::acrB Pore (EKO-35 araC::acrB Pore; [9]): 200 µg/mL; Minimum inhibitory concentration [2, 10]: 200 µg/mL; Minimum inhibitory concentration (EKO-35 araC::emrAB Pore; [11]): 200 µg/mL; Minimum inhibitory concentration, EKO-35 araC::acrEF Pore (EKO-35 araC::acrEF Pore; [9]): 200 µg/mL
CC(=O)NC[C@H]1CN(c2ccc(N3CCOCC3)c(F)c2)C(=O)O1 [linezolid] | 125 µg/mL | 125 µg/mL | 3.91 µg/mL | 3.906 µg/mL | 1 fold | 1 fold | 2 fold | 1 fold | 1 fold | 2 fold | 1 fold | 1 fold | 1 fold | 1 fold | 32 fold | 2 fold | 16 fold | 1 fold | 2 fold | 2 fold | MIC (EKO-35-Pore; [5]): 3.91 µg/mL; MIC (EKO-35-Pore; [6]): 3.91 µg/mL; MIC (EKO-35 araC::acrBD408A; [7]): 7.81 µg/mL; MIC (EKO-35 araC::acrEF; [8]): 15.6 µg/mL; MIC (EKO-35 araC::mdtEF; [8]): 3.91 µg/mL; MIC (EKO-35 araC::mdtBC; [7]): 3.91 µg/mL; MIC [1, 7]: 15.6 µg/mL; MIC (EKO-35 araC::emrKY; [7]): 3.91 µg/mL; MIC (EKO-35 araC::emrAB; [7]): 3.91 µg/mL; MIC (EKO-35 araC::macAB; [7]): 3.91 µg/mL; MIC (EKO-35 araC::acrD; [8]): 7.81 µg/mL; MIC (EKO-35 araC::acrB; [8]): 250 µg/mL; MIC (EKO-35 araC::acrD Pore; [9]): 7.81 µg/mL; MIC (EKO-35 araC::acrB Pore; [9]): 62.5 µg/mL; MIC [2, 10]: 3.91 µg/mL; MIC (EKO-35 araC::emrAB Pore; [11]): 7.81 µg/mL; MIC (EKO-35 araC::acrEF Pore; [9]): 7.81 µg/mL
